Our source for the IC50 and EC50 values is BindingDB's records for doi:10.1038/nchembio.211 (Praecis Pharmaceuticals, 2009).

The IC50 is the concentration needed to halve the response being measured. In general, EC50 refers to the concentration that produces a half-maximal response.

Numbering of substitutions follows the chain as printed.

Conditions in all cases: pH 9.5; 16 °C
The target of test [1] is T1, Aurora kinase A (Homo sapiens, UniProt O14965).
T1 sequence (O14965 whole entry): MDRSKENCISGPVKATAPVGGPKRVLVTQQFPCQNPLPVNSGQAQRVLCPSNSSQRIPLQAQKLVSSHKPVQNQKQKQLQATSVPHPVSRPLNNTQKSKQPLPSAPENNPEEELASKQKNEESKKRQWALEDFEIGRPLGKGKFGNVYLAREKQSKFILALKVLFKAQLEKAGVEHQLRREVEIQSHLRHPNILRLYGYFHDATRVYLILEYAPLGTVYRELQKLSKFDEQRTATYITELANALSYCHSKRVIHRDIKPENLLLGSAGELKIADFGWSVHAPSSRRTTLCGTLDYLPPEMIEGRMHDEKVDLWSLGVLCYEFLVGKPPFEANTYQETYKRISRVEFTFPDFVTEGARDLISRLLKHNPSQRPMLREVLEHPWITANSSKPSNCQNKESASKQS
Nature of the test: Aurora A Inhibition Assay. The text has this: (§1) Selection of DNA-encoded libraries (DELs) which are covalent attachment of encoding double stranded DNA to small-molecule created using a combination of enzymatic and chemical synthesis in a split-and-pool format against Aurora A kinase

The target in test [2] is T2, Aurora kinase A (Homo sapiens, UniProt O14965).
T2 sequence (O14965 whole entry): T1 sequence (O14965 whole entry) with I57V
Nature of the test: Aurora A Inhibition Assay.
From the text: as §1
This is another data set of the same source.

Test [3] deals with Mitogen-activated protein kinase 14 (Homo sapiens, UniProt Q16539). Nature of the test: MAPK p38 Inhibition Assay. The text has this: Selection of DNA-encoded libraries (DELs), which are covalent attachment of encoding double stranded DNA to small-molecule created using a combination of enzymatic and chemical synthesis in a split-and-pool format against p38 mitogen-activated protein kinase
Chain of Mitogen-activated protein kinase 14 (Q16539 whole entry): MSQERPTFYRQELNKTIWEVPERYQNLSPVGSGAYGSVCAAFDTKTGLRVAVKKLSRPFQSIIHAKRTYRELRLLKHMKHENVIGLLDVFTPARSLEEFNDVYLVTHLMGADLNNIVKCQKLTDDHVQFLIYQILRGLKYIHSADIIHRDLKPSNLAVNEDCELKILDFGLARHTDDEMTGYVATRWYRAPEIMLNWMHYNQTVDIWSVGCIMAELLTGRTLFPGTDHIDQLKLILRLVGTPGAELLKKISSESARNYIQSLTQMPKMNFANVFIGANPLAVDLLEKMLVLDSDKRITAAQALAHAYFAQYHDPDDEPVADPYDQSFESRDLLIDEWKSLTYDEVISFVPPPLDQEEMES

Turning to `CCCCN(C)c1nc(NCCc2ccccc2OC)nc(NC(Cc2c[nH]c3ncccc23)C(N)=O)n1` (stereo unspecified) [2-(4-(Butyl(methyl)amino)-6-(2-methoxyphenethylamino)-1,3,5-triazin-2-ylamino)-3-(1H-pyrrolo[2,3-b]pyridin-3-yl)propanamide], in test [1], the concentration for half-maximal inhibition (IC50) was found to be 3.8 µM. Regarding `CNc1nc(NCCc2ccccc2OC)nc(Nc2ccc3ncccc3c2)n1` [DEL-A, 12], the 50% inhibitory concentration (IC50) in test [2] was found to be 5.1 µM. As to `COc1ccccc1CCNc1nc(Nc2ccc3ncccc3c2)nc(NC(Cc2c[nH]c3ncccc23)C(N)=O)n1` (stereo unspecified) [2-(4-(2-Methoxyphenethylamino)-6-(quinolin-6-ylamino)-1,3,5-triazin-2-ylamino)-3-(1H-pyrrolo[2,3-b]pyridin-3-yl)propanamide], the IC50 in test [1] is 3.7 µM. For `CCCCN(C)c1nc(NCCc2ccccc2OC)nc(NCCc2c[nH]c3ncccc23)n1` [N2-(2-(1H-Pyrrolo[2,3-b]pyridin-3-yl)ethyl)-N4-butyl-N6-(2-methoxyphenethyl)-N4-methyl-1,3,5-triazine-2,4,6-triamine], the IC50 in test [1] stood at 1.2 µM. On to `CNC(=O)[C@H](Cc1ccc2c(c1)COC(C)(C)O2)Nc1nc(NCC(C)C)nc(-n2cnc3cc(C(=O)N4CCCc5ccccc54)ccc32)n1` [(S)-3-(2,2-Dimethyl-4H-benzo[d][1,3]dioxin-6-yl)-2-(4-(isobutylamino)-6-(5-(1,2,3,4-tetrahydroquinoline-1-carbonyl)-1H-benzo[d]imidazol-1-yl)-1,3,5-triazin-2-ylamino)-N-methylpropanamide], for which the EC50 in test [3] was 0.25 µM. In the case of `COc1ccccc1CCNc1nc(NC(Cc2c[nH]c3ncccc23)C(N)=O)nc(N(C)[C@@H](C)c2ccccc2)n1` (stereo partly drawn) [2-(4-(2-Methoxyphenethylamino)-6-(methyl((S)-1-phenylethyl)amino)-1,3,5-triazin-2-ylamino)-3-(1H-pyrrolo[2,3-b]pyridin-3-yl)propanamide], the half-inhibitory concentration (IC50) in test [1] stood at 6.3 µM.
